Data taken from patent US7834005B2, “Pyrrolobenzodiazepine derivatives, compositions comprising the same and methods related thereto” (The United States of America as represented by the …, priority 2003, dated 2010).

Legend:
[1] = system: standard panel of 12 tumor cell lines; assay: hollow fiber assay; format: in vivo, mice
Protocol: A standard panel of 12 tumor cell lines was used for the routine hollow fiber screening. These included NCI-H23, NCI-H522, MDA-MB-231, MDA-MB-435, SW-620, COLO 205, LOX, UACC-62, OVCAR-3, OVCAR-5, U251 and SF-295. In addition, alternate lines were used for specialized testing of compounds on a nonroutine basis. The cell lines were cultivated in RPMI-1640 containing 10% FBS and 2 mM glutamine. On the day preceeding hollow fiber preparation, the cells were given a supplementation of fresh medium to maintain log phase growth. For fiber preparation, the cells were harvested by standard trypsinization technique and resuspended at the desired cell density ((2-10×10^6 cells/ml). The cell suspension was flushed into 1 mm (internal diameter) polyvinylidene fluoride hollow fibers with a molecular weight exclusion of 500,000 Da. The hollow fibers were heat-sealed at 2 cm intervals and the samples generated from these seals were placed into tissue culture medium and incubated at 37° C. in 5% CO2 for 24 to 48 hours prior to implantation. A total of 3 different tumor lines were prepared for each experiment so that each mouse receives 3 intraperitoneal implants (1 of each tumor line) and 3 subcutaneous implants (1 of each tumor line). On the day of implantation, samples of each tumor cell line preparation were quantitated for viable cell mass by a stable endpoint MTT assay so that the time zero cell mass is known. Mice were treated with experimental agents starting on day 3 or 4 following fiber implantation and continuing daily for 4 days. Each agent was administered by intraperitoneal injection at 2 dose levels. The fibers were collected from the mice on the day following the fourth compound treatment and subjected to the stable endpoint MTT assay. The optical density of each sample was determined spectrophotometrically at 540 nm and the mean of each treatment group was calculated. The percent net growth for each cell line in each treatment group was calculated and compared to the percent net growth in the vehicle treated controls. A 50% or greater reduction in percent net growth in the treated samples compared to the vehicle control samples was considered a positive result. Each positive result was given a score of 2 and all of the scores were totaled for a given compound. The maximum possible score for an agent is 96 (12 cell lines×2 sites×2 dose levels×2 [score]).

OVCAR-5 (ovarian ca) = assay: in vivo efficacy, OVCAR-5 (ovarian ca) subcutaneous tumor model; set-up: species or system athymic mice; conditions: OVCAR-5, Early-SC, intravenous
Protocol: (§1) NSC 694501 was evaluated for in vivo efficacy in athymic mice bearing 8 subcutaneous tumor models: LOX and UACC-62 (melanoma), OVCAR-3 and OVCAR-5 (ovarian ca), MDA-MB-435 (breastca), SF-295 and C-6 (glioma), and LS-174T (colonca). The models were selected on the basis of hollow fiber assays and in vitro time course assays.
(§2) A qDx5 schedule conferred better efficacy than a q4Dx3 schedule in each of the 4 models tested on two schedules. NSC 694501 was active over a wide dosage range in athymic mice using compound prepared fresh just prior to injection in 1% EtOH vehicle: On a qDx5 schedule, the maximum tolerated dose was approximately 120 μg/kg/dose and the minimum effective dose in one of the most sensitive models (SF-295) was 16 μg/kg/dose.

[2] = as above; set-up: species or system athymic mice; conditions: athymic, mouse, in vivo, OVCAR-5, Early-SC
Protocol: as §1, §2

UACC-62 (melanoma) = assay: in vivo efficacy, UACC-62 (melanoma) subcutaneous tumor model; set-up: species or system athymic mice; conditions: UACC-62, Early-SC, intravenous
Protocol: as §1, §2

[3] = as above; set-up: species or system athymic mice; conditions: athymic, mouse, in vivo, UACC-62, Early-SC
Protocol: as §1, §2

C=C1C[C@H]2C=Nc3cc(OCCCOc4cc5c(cc4OC)C(=O)N4CC(=C)C[C@H]4C=N5)c(OC)cc3C(=O)N2C1 [NSC 694501]
cell lines killed ([1]; hollow fiber assay): three cell lines killed: UACC-62 melanoma, OVCAR-3 ovarian cancer, and MDA-MB-435 breast cancer
hollow fiber assay score, intraperitoneal [i.p.] ([1]; intraperitoneal implants): 40
hollow fiber assay total score ([1]; ip + sc, maximum possible score 96): 54
hollow fiber assay score, subcutaneous [s.c.] ([1]; subcutaneous implants): 14
BW Loss (OVCAR-5 (ovarian ca); Q4D X3, 0.45 mg/kg/dose): 21.2%
Growth Delay % [(T − C)/C] (OVCAR-5 (ovarian ca); Q4D X3, 0.45 mg/kg/dose): 32%
Optimal % T/C (OVCAR-5 (ovarian ca); Q4D X3, 0.45 mg/kg/dose): 38%
BW Loss (OVCAR-5 (ovarian ca); QD X5, 0.081 mg/kg/dose): 2.6%
Growth Delay % [(T − C)/C] (OVCAR-5 (ovarian ca); QD X5, 0.081 mg/kg/dose): 102%
Optimal % T/C (OVCAR-5 (ovarian ca); QD X5, 0.081 mg/kg/dose): 13%
MTD at 9 days ([2]; Q4D X3, intravenous): 0.45 mg/kg
MTD at 5 days ([2]; QD X5, intravenous): 0.081 mg/kg
BW Loss (UACC-62 (melanoma); Q4D X3, .45 mg/kg/dose): 20.9%
Growth Delay % [(T − C)/C] (UACC-62 (melanoma); Q4D X3, .45 mg/kg/dose): 43%
Optimal % T/C (UACC-62 (melanoma); Q4D X3, .45 mg/kg/dose): 28%
BW Loss (UACC-62 (melanoma); QD X5, 0.054 mg/kg/dose): 20.2%
Growth Delay % [(T − C)/C] (UACC-62 (melanoma); QD X5, 0.054 mg/kg/dose): 150%
Optimal % T/C (UACC-62 (melanoma); QD X5, 0.054 mg/kg/dose): 26%
value in parentheses in Growth Delay column (UACC-62 (melanoma); QD X5, 0.054 mg/kg/dose): 0.9 L
MTD at 9 days ([3]; Q4D X3, intravenous): 0.45 mg/kg
MTD at 5 days ([3]; QD X5, intravenous): 0.054 mg/kg
